Laboratory results reported in US20070212690A1, “Folate Antagonists Having Improved Selectivity” (Serenex, Inc., priority 2003, published 2007).

How the values were obtained:
[1] = tested on: methylcrotonyl-CoA carboxylase; experiment: Elution of purine-binding proteins from ATP-Sepharose column with the compound; set-up: species or system porcine liver, porcine lidney, HeLa cells, whole mice; conditions: lysate on ATP-Sepharose; methotrexate 10 nM to 500 μM; SDS gel, silver stain, MALDI
Procedure: (§1) Molecular targets for the folate antagonist methotrexate were identified as follows. Cell or tissue lysates were produced from porcine liver, porcine lidney, HeLa cells, and whole mice. This lysate was run over an ATP-Sepharose™ column in order to extract all purine-binding proteins. […] The ATP-Sepharose™ washed several times, and then eluted with methotrexate at concentrations ranging from 10 nM to 500 μM to identify proteins that bound to this compound. The eluted fractions were run on a 1-dimensional SDS polyacrylamide gel. The eluted proteins were then stained with silver stain, cut out of the gel, and identified using matrix-assisted laser deionization/ionization (MALDI).

biotin carboxylase = experiment: as above; set-up: species or system porcine liver, porcine lidney, HeLa cells, whole mice; conditions: lysate on ATP-Sepharose; methotrexate 10 nM to 500 μM; SDS gel, silver stain, MALDI
Procedure: as §1

pyruvate carboxylase = experiment: as above; set-up: species or system porcine liver, porcine lidney, HeLa cells, whole mice; conditions: lysate on ATP-Sepharose; methotrexate 10 nM to 500 μM; SDS gel, silver stain, MALDI
Procedure: (§2) Molecular targets for the folate antagonist methotrexate were identified as follows. Cell or tissue lysates were produced from porcine liver, porcine lidney, HeLa cells, and whole mice. This lysate was run over an ATP-Sepharose™ column in order to extract all purine-binding proteins. […] The ATP-Sepharose™ washed several times, and then eluted with methotrexate at concentrations ranging from 10 nM to 500 μM to identify proteins that bound to this compound. The eluted fractions were run on a 1-dimensional SDS polyacrylamide gel. The eluted proteins were then stained with silver stain, cut out of the gel, and identified using matrix-assisted laser deionization/ionization (MALDI). […] The experiment was also repeated using folate to elute the purine binding proteome from the ATP-Sepharose column.

DHFR = experiment: as above; set-up: species or system porcine liver, porcine lidney, HeLa cells, whole mice; conditions: lysate on ATP-Sepharose; methotrexate 10 nM to 500 μM; SDS gel, silver stain, MALDI
Procedure: as §2

acetyl-CoA carboxylase = experiment: as above; set-up: species or system porcine liver, porcine lidney, HeLa cells, whole mice; conditions: lysate on ATP-Sepharose; methotrexate 10 nM to 500 μM; SDS gel, silver stain, MALDI
Procedure: as §1

[2] = tested on: propionyl-CoA carboxylase; experiment: as above; set-up: species or system porcine liver, porcine lidney, HeLa cells, whole mice; conditions: lysate on ATP-Sepharose; methotrexate 10 nM to 500 μM; SDS gel, silver stain, MALDI
Procedure: as §2

[3] = tested on: the same proteins that were eluted from ATP-Sepharose with methotrexate; experiment: Elution of lysate proteins from methotrexate covalently linked to agarose; format: binding, porcine liver, porcine lidney, HeLa cells, whole mice; conditions: lysates applied to methotrexate covalently linked to agarose
Procedure: as §1

glutathione synthase = experiment: Elution of purine-binding proteins from ATP-Sepharose column with the compound; set-up: species or system porcine liver, porcine lidney, HeLa cells, whole mice; conditions: lysate on ATP-Sepharose; methotrexate 10 nM to 500 μM; SDS gel, silver stain, MALDI
Procedure: as §2

GART = experiment: as above; conditions: lysate on ATP-Sepharose; methotrexate 10 nM to 500 μM; SDS gel, silver stain, MALDI
Procedure: as §2

CN(Cc1cnc2nc(N)nc(N)c2n1)c1ccc(C(=O)N[C@@H](CCC(=O)O)C(=O)O)cc1 [methotrexate]
methylcrotonyl-CoA carboxylase eluted from ATP-Sepharose by the compound (indicates binding) [1]: eluted
biotin carboxylase eluted from ATP-Sepharose by the compound (indicates binding) (biotin carboxylase): eluted
pyruvate carboxylase eluted from ATP-Sepharose by the compound (indicates binding) (pyruvate carboxylase): eluted
DHFR eluted from ATP-Sepharose by the compound (indicates binding) (DHFR): eluted
acetyl-CoA carboxylase eluted from ATP-Sepharose by the compound (indicates binding) (acetyl-CoA carboxylase): eluted
propionyl-CoA carboxylase eluted from ATP-Sepharose by the compound (indicates binding) [2]: eluted
same proteins eluted from methotrexate-agarose with methotrexate (confirmation of targets) [3]: also eluted from methotrexate agarose with methotrexate
glutathione synthase eluted from ATP-Sepharose by the compound (indicates binding) (glutathione synthase): eluted
GART eluted from ATP-Sepharose by the compound (indicates binding) (GART): eluted
